One series deals with MeWo. Nature of the series: Quantification of drug sensitivity (CellTiter-Blue), MeWo. The format is cell-based. The note with it: MeWo (melanoma), 72 h, 30-fold excess 2-hydroxypropyl-β-cyclodextrin, combination DSF/ATM 1:1. The protocol: (§1) Quantification of drug sensitivity (Figure 2A): Cell lines (including HT‐29) were obtained from ATCC or as gifts from other research groups at the DKFZ and checked for mycoplasma contamination and authenticity before use. Cell lines were seeded in 96‐well plates in RPMI‐1640 medium, supplemented with 10 % BCS (bovine calf serum) and 1 % Pen/Strep at a density of 2×10^4 cells/well. Disulfiram (DSF) and sodium aurothiomalate (ATM) were added at a fixed ratio of 1 : 1, formulated in a 30‐fold molar excess of 2HP‐β‐CD (2‐hydroxypropyl‐β‐cyclodextrin). ATM and DSF monotherapy was also done in the presence of 2HP‐β‐CD, to control for possible combination effects by 2HP‐β‐CD. All concentrations were applied in triplicate. After incubation at 37 °C for 72 h, CellTiter‐Blue (Promega) was added (10 μL/well). After incubation at 37 °C for 4 h, fluorescence (excitation filter: 550 nm, emission filter 590 nm) was determined in an Optima FLUOstar microplate reader (BMG Labtech). Mean values were calculated for each treatment and EC50 values were calculated from […] dose response curves.
A general note: Alamar Blue is a resazurin reagent that responds to reducing activity.

For another series, the system named is Calu-6 cells. Nature of the series: Quantification of drug sensitivity (CellTiter-Blue), Calu-6. The format is cell-based. The note with it: Calu-6 (NSCLC), 72 h, 30-fold excess 2-hydroxypropyl-β-cyclodextrin, combination DSF/ATM 1:1. The protocol: as §1
Dose-Response Curves of ATM/DSF and 5
Figure S2: Dose-response curves of the s toichiometric mixture of ATM and DSF (blue) as well
as isolated 5 (red) for the treatment of Calu-6 cells (both in the presence of 30-fold excess of 2-
(also on this page, place not known: Normalized Proliferation (CellTiter-Blue) stoichiometric) […]

For another series, the system named is HeLa. Nature of the series: Quantification of drug sensitivity (CellTiter-Blue), HeLa. The format is cell-based. The note with it: HeLa (cervix carcinoma), 72 h, 30-fold excess 2-hydroxypropyl-β-cyclodextrin, combination DSF/ATM 1:1. The procedure:
as §1

A further series relates to HL-60. Put plainly: Quantification of drug sensitivity (CellTiter-Blue), HL-60. The format is cell-based. The note with it: HL-60 (non-T cell leukemia), 72 h, 30-fold excess 2-hydroxypropyl-β-cyclodextrin, combination DSF/ATM 1:1. The procedure:
as §1

Another series concerns HCT 116. Put plainly: Quantification of drug sensitivity (CellTiter-Blue), HCT 116. It counts as cell-based. The note with it: HCT 116 (colon carcinoma), 72 h, 30-fold excess 2-hydroxypropyl-β-cyclodextrin, combination DSF/ATM 1:1. The procedure: as §1
Another series concerns COLO-357. Nature of the series: Quantification of drug sensitivity (CellTiter-Blue), COLO-357. The format is cell-based. The note with it: COLO-357 (pancreatic cancer), 72 h, 30-fold excess 2-hydroxypropyl-β-cyclodextrin, combination DSF/ATM 1:1. The procedure: as §1
For a further series, the system named is SK-OV-3. Put plainly: Quantification of drug sensitivity (CellTiter-Blue), SK-OV-3. The format is cell-based. The conditions noted are these: SK-OV-3 (ovarian carcinoma), 72 h, 30-fold excess 2-hydroxypropyl-β-cyclodextrin, combination DSF/ATM 1:1. The protocol: as §1
The subject of series [1] is cytoplasmic ROS in H838 cells (roGFP2-Orp1). Nature of the series: ROS level in cytoplasm, roGFP2-Orp1 sensor. The format is cell-based. The conditions noted are these: 12.5 μM, DMSO stock or up to 32-fold excess of SBE-β-CD. The procedure: (§2) Measurement of ROS levels in cytoplasm and mitochondria (Figure 8): The effects of 33 and auranofin on roGFP2‐Orp1 oxidation were quantified in H838 cells stably expressing roGFP2‐Orp1 targeted either to cytoplasm or mitochondria as described in Ezerina et al.[28] Specifically, a 5 mM stock solution of 33 was prepared by directly dissolving solid 33 into 10 mM, 40 mM, 80 mM, and 160 mM solutions of SBE‐β‐CD (Biomol) in PBS (Gibco). A 100 mM auranofin (Sigma‐Aldrich) solution was prepared in DMSO (Sigma‐Aldrich). This was further diluted to 0.5 mM stock solutions of auranofin in 0 mM, 4 mM, 8 mM, and 16 mM SBE‐β‐CD in PBS. […] Non‐transduced H838 cells were seeded on the same plate to establish background fluorescence. The fluorescence intensity from these wells was subtracted from all the measurement results. To establish the signal baseline, the entire plate was measured every 3 min for 8 cycles in a CLARIOstar fluorescence plate reader (BMG Labtech), with excitation wavelengths of 400 nm and 485 nm, while measuring emission at 520 nm. […] The readout of the roGFP2 measurement is normalized to the positive (1.0) and the negative (0) controls using the following equation: OxDroGFP2=(I400sampleI485red)-(I400redI485sample)/(I400sample)I485red-I485ox+(I485sampleI400ox-I400red)
(§3) where I400 and I485 are the signal intensities measured at 520 nm after excitation at 400 nm and 485 nm, respectively. […]

In series [2] the test system is mitochondrial ROS in H838 cells (roGFP2-Orp1). Nature of the series: ROS level in mitochondria, roGFP2-Orp1 sensor. The format is cell-based. The conditions noted are these: 12.5 μM, DMSO stock or up to 32-fold excess of SBE-β-CD. The protocol: as §2, §3
Series [3] is described as follows: Solubility / solubilization in solvents and cyclodextrin (observations). The format is physicochemical.

Some results are limits rather than exact numbers.

Usually EC50 stands for the concentration giving half of the maximal effect. As for `O=C([O-])CC([S-])C(=O)[O-].[Au+].[Na+].[Na+]` (stereo not shown) [ATM, sodium aurothiomalate], the EC50 was determined as 130 µM in the series with MeWo; 360 µM with Calu-6 cells; 440 µM with HeLa; 330 µM in the series on HL-60; 140 µM with HCT 116; 96 µM in the series with COLO-357. For the same compound, the EC50 with SK-OV-3 stood at 260 µM.

Turning to `CCN(CC)C(=S)SSC(=S)N(CC)CC` [DSF, disulfiram], the EC50 was found to be 290 µM in the series with MeWo (Homo sapiens); 160 µM in the series with Calu-6 cells (Homo sapiens); 320 µM in the series on HeLa (Homo sapiens); 120 µM with HL-60 (Homo sapiens); 3.4 µM with HCT 116 (Homo sapiens); 82 µM with COLO-357 (Homo sapiens, COLO357). For the same compound, the EC50 in the series on SK-OV-3 (Homo sapiens) turned out to be 340 µM.

As for `CC(=O)OC[C@H]1O[C@@H]([S-])[C@H](OC(C)=O)[C@@H](OC(C)=O)[C@@H]1OC(C)=O.CCP(CC)CC.[Au+]` [auranofin], the “cytoplasmic ROS (roGFP2-Orp1 oxidation)” value in series [1] is on record as “high levels of ROS”. Besides, the “mitochondrial ROS (roGFP2-Orp1 oxidation)” value in [2] was “high levels of ROS”.

Turning to [Au(N,N‐diethyl)dtc]2 [compound 5], the EC50 in the series on Calu-6 cells is 1.6 µM. In series [3], the “cyclodextrin required for solubilization” value was above 30 molar equivalents. Further, the “solubility in common/organic solvents” value in [3] (organic solvents including DMSO, ambient temperature) was “poor solubility”.

Source of the values: paper PMC8456977, “Inclusion Complexes of Gold(I)‐Dithiocarbamates with β‐Cyclodextrin: A Journey from Drug Repurposing towards Drug Discovery” (Chemistry (Weinheim an Der Bergstrasse, Germany), 2021).
